From US5292732A, “Pyrrolopyrazine derivatives” (Hoffmann-La Roche Inc., priority 1991, dated 1994)
Where a name gives a salt, the structure may show the parent alone.

Columns and labels:
[1] = Preliminary oral toxicity testing in mice; type: in vivo; conditions: one mouse per dosage; for LLD (lowest lethal dose): death within 24 hrs.; for MTD: in vivo, survival, read-out: HTD (highest tolerated dose)
Description: The toxicity of the compounds in accordance with the invention is investigated by orally administering different dosages of the dissolved or suspended compounds to mice. One mouse is used per dosage. The dosage is halved stepwise so that a dosage range of about 1.5 to the power of ten is covered. The results of this preliminary toxicity testing are reproduced in the form of two administered dosages.
The higher dosage (LLD=lowest lethal dose) led to death within 24 hrs., the lower dosage (HTD=highest tolerated dose) was survival. (Dosage data in miligram per kilogram body weight, administered orally).

[2] = target: T1, MAO (substrate 5-HT) (Rattus norvegicus, UniProt P21396); test: MAO inhibition in vitro, rat brain homogenate, substrate 14C-labelled serotonin (5-HT); type: biochemical; conditions: substrate 5-HT 2×10^-4 M, 37° C.
T1 construct: 20 μl of rat brain homogenate; from tissue; host or cells: rat brain homogenate
T1 sequence (P21396 1-526): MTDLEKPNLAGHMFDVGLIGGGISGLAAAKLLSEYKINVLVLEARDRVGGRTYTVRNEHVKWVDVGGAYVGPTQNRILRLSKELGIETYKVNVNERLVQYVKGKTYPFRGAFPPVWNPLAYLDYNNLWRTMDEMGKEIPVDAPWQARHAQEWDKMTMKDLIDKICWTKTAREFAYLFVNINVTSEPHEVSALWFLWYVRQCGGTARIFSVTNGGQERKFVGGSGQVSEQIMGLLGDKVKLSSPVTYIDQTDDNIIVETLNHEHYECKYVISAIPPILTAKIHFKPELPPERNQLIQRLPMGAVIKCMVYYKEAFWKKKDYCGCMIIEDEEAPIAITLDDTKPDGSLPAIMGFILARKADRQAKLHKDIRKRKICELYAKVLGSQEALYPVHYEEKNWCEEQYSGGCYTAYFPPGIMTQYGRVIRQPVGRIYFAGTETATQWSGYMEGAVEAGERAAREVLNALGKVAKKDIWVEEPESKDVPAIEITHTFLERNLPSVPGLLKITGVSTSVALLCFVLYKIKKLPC
Procedure: (§1) The MAO inhibiting activity of the compounds in accordance with the invention can be determined in vitro or ex vivo using standard methods. The preparations to be tested were investigated in the tests described hereinafter, which were based on the methods of R. J. Wurtmann and J. A. Axelrod [Biochem. Pharmac. 12, 1439-41 (1963).
(§2) Isolated rat brains are homogenized in 0.1 molar potassium phosphate buffer (pH 7.4) in the ratio 1:4 (weight/volume), the homogenate is diluted with the same buffer in the ratio 1:5 (volume/volume) and stored at -20° C. A mixture of the following composition was used for the incubation:
(§3) 100 μl of 1M phosphate buffer (pH 6.7);
(§4) 100 μl of solution of the substance to be tested in water or in 10% aqueous dimethyl sulphoxide;
(§5) 20 μl of rat brain homogenate; and as the substrate
(§6) 80 μl of ^14 C-labelled serotonin (5-HT) or ^14 C-labelled phenylethylamine (PEA), the radioactive concentration of which amounts to 100,000 decay per minute and which is used in a final concentration of 2×10^-4 M and, respectively, 2×10^-5 M.
(§7) A pre-incubation at 37° C. is effected for 30 minutes prior to the addition of the substrate. The incubation (in the presence of the substrate) is likewise effected at 37° C. and lasts for 10 minutes. The reaction is stopped by the addition of 200 μl of 2N hydrochloric acid.
(§8) In order to extract the desaminated product, the mixture is shaken for 10 minutes with 5 ml of diethyl ether or with 5 ml of n-heptane depending on whether 5-HT or PEA is used as the substrate, whereupon the mixture is centrifuged, the aqueous phase is frozen in a dry-ice bath, the organic phase is transferred into a counting glass and the radioactive concentration is determined in a β-counter.
(§9) The activity of the MAO in comparison to the control homogenates (without substance to be tested) is obtained on the basis of the β-values and the IC50 is defined as that concentration of a substance to be tested which reduces the activity of the MAO upon the substrate 5-HT or PEA by 50%.

[3] = test system: MAO in the brain (substrate 5-HT); test: MAO inhibition ex vivo in brain of rats, substrate 5-HT; design: species or system male albino rats (Fu-SPF); conditions: rat, 100 μmol/kg orally, 2 hrs., given in percentage of the control values
Procedure: as §1
(§10) The compounds to be tested are investigated for the inhibition of MAO in the brain and liver of male albino rats (Fu-SPF, 100-140 g. The test compounds are administered orally as a solution or suspension in water in a dosage of 100 μmol per kilogram body weight. After 2 hrs. the animals are narcotized and decapitated. The brain (without cerebellum) and a portion of the liver are dissected out and submitted analogously to the above-described procedure for the determination of the MAO inhibiting activity, whereby the amount of enzyme used is 20 μl of a 1:20 homogenate in the case of brain and 20 μl of a 1:80 homogenate in the case of liver. The activity of the compounds is determined from a comparison of the β-values with the values for control animals treated with vehicle and is given in percentage of the control values.

[4] = target: T2, MAO (substrate PEA) (Rattus norvegicus, UniProt P19643); test: MAO inhibition in vitro, rat brain homogenate, substrate 14C-labelled phenylethylamine (PEA); type: biochemical; conditions: substrate PEA 2×10^-5 M, 37° C.
T2 construct: 20 μl of rat brain homogenate; from tissue; host or cells: rat brain homogenate
T2 sequence (P19643 1-520): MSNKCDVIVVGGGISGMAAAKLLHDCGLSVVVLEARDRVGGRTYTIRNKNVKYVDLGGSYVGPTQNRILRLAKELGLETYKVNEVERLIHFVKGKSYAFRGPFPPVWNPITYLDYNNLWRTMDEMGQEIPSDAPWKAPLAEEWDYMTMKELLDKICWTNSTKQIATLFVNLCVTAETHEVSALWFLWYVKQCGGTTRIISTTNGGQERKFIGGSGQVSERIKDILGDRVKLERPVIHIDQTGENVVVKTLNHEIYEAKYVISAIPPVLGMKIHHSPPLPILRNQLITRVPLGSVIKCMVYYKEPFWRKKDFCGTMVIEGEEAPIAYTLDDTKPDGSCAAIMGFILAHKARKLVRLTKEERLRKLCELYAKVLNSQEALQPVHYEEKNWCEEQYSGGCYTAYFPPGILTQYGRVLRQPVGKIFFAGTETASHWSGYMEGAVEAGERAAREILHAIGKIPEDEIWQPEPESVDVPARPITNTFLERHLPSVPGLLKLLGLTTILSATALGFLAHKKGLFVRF
Procedure: as §1, §2, §3, §4, §5, §6, §7, §8, §9

[5] = test system: MAO in the brain (substrate PEA); test: MAO inhibition ex vivo in brain of rats, substrate PEA; design: species or system male albino rats (Fu-SPF); conditions: rat, 100 μmol/kg orally, 2 hrs., given in percentage of the control values
Procedure: as §1, §10

[6] = test system: MAO in the liver (substrate 5-HT); test: MAO inhibition ex vivo in liver of rats, substrate 5-HT; design: species or system male albino rats (Fu-SPF); conditions: rat, 100 μmol/kg orally, 2 hrs., given in percentage of the control values
Procedure: as §1, §10

[7] = test system: MAO in the liver (substrate PEA); test: MAO inhibition ex vivo in liver of rats, substrate PEA; design: species or system male albino rats (Fu-SPF); conditions: rat, 100 μmol/kg orally, 2 hrs., given in percentage of the control values
Procedure: as §1, §10

SMILES	LLD (lowest lethal dose) [1]	MTD [1] [mg/kg]	IC50 [2] [nM]	Remaining brain MAO activity, 5-HT (% of control) [3] [%]	IC50 [4] [nM]	Remaining brain MAO activity (PEA), % of control [5] [%]	MAO inhibition, Liver, 5HT [6] [%]	Remaining liver MAO activity (PEA), % of control [7] [%]
CC1NCCn2c1cc1c2-c2ccc(Cl)cc2CC1.O=C(O)/C=C/C(=O)O (centres unmarked) [Example 31, 3-chloro-5,6,8,9,10,11-hexahydro-8-methylbenzo[g]pyrazino[1,2-a]indole fumarate (1:1)]	1000 miligram per kilogram body wei	500						
CC1=NCCn2c1cc1c2-c2ccc(OC3CCCC3)cc2CC1.O=C(O)/C=C/C(=O)O [Example 53, 3-cyclopentyloxy-5,6,10,11-tetrahydro-8-methylbenzo[g]pyrazino[1,2-a]indole fumarate (1:1)]	500 miligram per kilogram body wei	250						
CC1=NCCn2c1cc1c2-c2ccc(C)cc2CC1 [5,6,10,11-tetrahydro-3,8-dimethylbenzo[g]pyrazino[1,2-a]indole]			2	43	> 1000	82	17	96
CC1=NCCn2c1ccc2-c1ccc(O[C@@H]2C[C@H]3CC[C@@H]2C3)cc1 (relative stereo) [3,4-Dihydro-1-methyl-6-[p-(2-exonorbornyloxy)phenyl]pyrrolo[1,2-a]pyrazine]			20	45	3	11	51	10
CC1NCCn2c1cc1c2-c2ccccc2CC1 (centres unmarked) [5,6,8,9,10,11-Hexahydro-8-methylbenzo[g]pyrazino[1,2-a]indole]			90	69	> 1000	95	55	78
COc1ccc2c(c1)CCc1cc3n(c1-2)CCN=C3C [5,6,10,11-Tetrahydro-3-methoxy-8-methyl-benzo[g]pyrazino[1,2-a]indole]			0.8	28	> 1000	86	5	87
CC1=NCCn2c1ccc2-c1ccc(Cl)cc1.O=C(O)/C=C/C(=O)O [Example 2, 6-(p-chloro-phenyl)-3,4-dihydro-1-methylpyrrolo[1,2-a]pyrazine fumarate (1:1)]	625 miligram per kilogram body wei	312						
CC1NCCn2c1cc1c2-c2ccccc2CC1.O=C(O)/C=C/C(=O)O (centres unmarked) [Example 29, 5,6,8,9,10,11-hexahydro-8-methylbenzo[g]pyrazino[1,2-a]indole fumarate (1:1)]	625 miligram per kilogram body wei	312						
COc1ccc(-c2ccc3n2CCN=C3C)cc1 [3,4-Dihydro-6-(p-methoxyphenyl)-1-methylpyrrolo[1,2-a]pyrazine]			50		> 1000			
CC1=NCCn2c1ccc2-c1ccccc1.O=C(O)/C=C/C(=O)O [Example 9, 3,4-dihydro-1-methyl-6-phenylpyrrolo[1,2-a]pyrazine fumarate (1:1)]	625 miligram per kilogram body wei	312						
CC1=NCCn2c1cc1c2-c2ccc(C3CCCCC3)cc2CC1 [3-cyclohexyl-5,6,10,11-tetrahydro-8-methylbenzo[g]pyrazino[1,2-a]indole]			2		160			
CC1=NCCn2c1cc1c2-c2ccc(Cl)cc2CC1.O=C(O)/C=C/C(=O)O [Example 12, 3-chloro-5,6,10,11-tetrahydro-8-methylbenzo[g]pyrazino[1,2-a]indole fumarate (1:1)]	250 miligram per kilogram body wei	125						
CC1=NCCn2c1cc1c2-c2ccccc2CC1 [Example 10, 5,6,10,11-tetrahydro-8-methyl-benzo[g]pyrazino[1,2-a]indole fumarate (2:3)]	312 miligram per kilogram body wei	156						
CC1=NCCn2c1ccc2-c1ccc(OC2CCCC2)cc1.O=C(O)/C=C/C(=O)O [Example 37, 6-[p-(cyclopentyloxy)phenyl]-3,4-dihydro-1-methylpyrrolo[1,2-a]pyrazine fumarate (1:1)]	625 miligram per kilogram body wei	312						
CC1=NCCn2c1ccc2-c1ccccc1 [3,4-Dihydro-1-methyl-6-phenylpyrrolo[1,2-a]pyrazine]			300		> 1000			
CC1=NCCn2c1ccc2-c1ccc(Cl)cc1 [6-(p-Chlorophenyl)-3,4-dihydro-1-methylpyrrolo[1,2-a]pyrazine]			350		10000			
CC1=NCCn2cc(-c3ccccc3)cc21 [3,4-Dihydro-1-methyl-7-phenylpyrrolo[1,2-a]pyrazine]			90		> 1000			
